Tested on: MV-4-11 cells
Assay: Anti-proliferation CellTiter-Glo assay, MV-4-11
Assay type: cell-based
Details: Homo sapiens, MV4-11, 12th day
Excerpt: MV-4-11 and MDA-MB-468 cell lines were used to evaluate the anti-proliferative activities of the selected target compounds (CellTiter-Glo assay), and AML-12 hepatocytes were selected to evaluate the toxicity of the compounds.
MV-4-11 and MDA-MB-468 cell line were derived from Cell Resources Center of Shanghai Academy of life sciences (Shanghai, China). AML-12 cell line was brough from Nanjing Lixing Biotechnology Co. Ltd. (Nanjing, China). MDA-MB-468 cell line was maintained in Dulbecco’s Modified Eagle Medium (DMEM, KeyGEN Bio) that contained 10% FBS (Biochanel, China), MV-4-11 cell line was maintained in Iscove’s Modified Dulbecco Medium containing; 10% FBS (Biochannel, China), AML-12 cell line was maintained in DMEM/F-12 (1:1) (KeyGEN, China; 1% ITS Liquid Media Supplement (Sigma, America), dexamethasone 40 ng/mL (Sigma, USA) and 10% FBS (Biochannel, China). All cells were grown in a humidified incubator containing 5% carbon dioxide at 37 ℃. All compounds were dispersed in dimethyl sulfoxide (Sigma), the concentration of the reserve solution was 10 mmol/L and the solution was stored in a refrigerator at −20 ℃. SDMA (# 13222S), β- Tubulin (#2146S) and horseradish peroxidase (HRP)-linked secondary antibodies anti-rabbit or anti-mouse IgG were purchased from Cell Signaling Technology (CST), and the anti-PRMT5 (ab109451) antibody was purchased from ABCAM.
The antiproliferative activities of compounds in vitro were measured by CellTiter-Glo (CTG) assay (Promega, America). In linear/log-phase growth, cultured MV-4-11 cells were split to with seeding density of 2 × 10^5 cells/mL in 1–20 mL of media, depending on the yield required at the end of the growth period. At the conclusion of each treatment period, cells were harvested by centrifugation (4 min, 1000 rpm), and cell pellets were rinsed twice with PBS before being research further processing. Afterwards, cells were plated in 96-well plates with a density of 500 cells/well in […] media. After six hours incubation, compounds treatment was performed. Half of the culture medium was moved and re-plated with fresh media with fresh compound after 6 days. On the 12th day, Cell Titer-Glo Luminescent Cell Viability assays (Promega, USA) were used to determine the viable cell number, and luminescence was recorded using the Envision Multilabel Plate Readers (PerkinElmer). The concentration dependence curves were determined at each time point using GraphPad Prism 8.0 software.

SMILES: O=C(NC[C@H](O)CN1CCc2ccccc2C1)c1ccc2c(c1)c1c(n2CC2COC2)CCCC1 [Compound 20, (S)-N-(3-(3,4-dihydroisoquinolin-2(1H)-yl)-2-hydroxypropyl)-9-(oxetan-3-ylmethyl)-2,3,4,9-tetrahydro-1H-carbazole-6-carboxamide]
- GI50: 4.6 ± 0.9 nM

Source: publication PMC9572541, “Design, Synthesis and Biological Evaluation of Novel and Potent Protein Arginine Methyltransferases 5 Inhibitors for Cancer Therapy” (Molecules, 2022)
